Each structure is given as a SMILES string.

The assay has as its target T1, human TPH1 (Homo sapiens, UniProt P17752).
T1 sequence (P17752 1-444): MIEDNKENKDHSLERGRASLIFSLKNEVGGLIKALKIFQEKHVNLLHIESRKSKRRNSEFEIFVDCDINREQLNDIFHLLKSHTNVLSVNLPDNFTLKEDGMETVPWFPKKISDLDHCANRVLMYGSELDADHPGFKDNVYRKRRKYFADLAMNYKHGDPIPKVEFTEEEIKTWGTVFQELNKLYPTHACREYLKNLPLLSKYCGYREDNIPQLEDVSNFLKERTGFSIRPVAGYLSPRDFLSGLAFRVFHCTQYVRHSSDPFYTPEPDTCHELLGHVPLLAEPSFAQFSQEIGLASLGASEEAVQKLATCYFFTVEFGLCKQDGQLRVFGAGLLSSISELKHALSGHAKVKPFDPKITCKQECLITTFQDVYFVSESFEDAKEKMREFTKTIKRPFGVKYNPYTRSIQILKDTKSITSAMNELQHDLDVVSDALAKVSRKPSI
The assay can be described thus: biochemical. The gist of the method: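 Inhibition is derived from 5-hydroxy-L-tryptophan fluorescence (540 nm emission, 300 nm excitation) after perchloric acid stop, relative to DMSO vehicle. Recombinant full-length human enzyme (40-80 nM) reacts with 40 μM tryptophan plus 100 μM methyltetrahydropterin, pH 7.6 Tris/DTT/catalase, 15° C, 60 min.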
As for `Cc1nc(C)c(C2c3c(nc4cc(C(F)(F)F)ccn34)CCN2C(=O)COc2ccc(C(=O)N(C)C3CC3)nc2Cl)s1` (stereo not shown) [Example 3.59.2, 6-chloro-N-cyclopropyl-5-(2-(1-(2,4-dimethylthiazol-5-yl)-7-(trifluoromethyl)-3,4-dihydroimidazo[1,2-a:5,4-c′]dipyridin-2(1H)-yl)-2-oxoethoxy)-N-methylpicolinamide], half-maximal inhibition (IC50) was put at 42 nM. Regarding `COC(=O)c1ccc(OCC(=O)N2CCc3nc4ccccn4c3[C@@H]2c2ncc(Cl)cc2F)c(Cl)n1` [Example 1.14.2, methyl (R)-6-chloro-5-(2-(1-(5-chloro-3-fluoropyridin-2-yl)-3,4-dihydroimidazo[1,2-a:5,4-c′]dipyridin-2(1H)-yl)-2-oxoethoxy)picolinate], inhibition was half-maximal at 222 nM (IC50). In the case of `CCOc1ccc(C2c3c(nc4cc(C(F)(F)F)ccn34)CCN2C(=O)COc2ccc(CN3CCOCC3)cc2Cl)cn1` (stereo not shown) [Example 3.7.1, 2-(2-chloro-4-(morpholinomethyl)phenoxy)-1-(1-(6-ethoxypyridin-3-yl)-7-(trifluoromethyl)-3,4-dihydroimidazo[1,2-a:5,4-c′]dipyridin-2(1H)-yl)ethan-1-one] it was 18 nM. In the case of `Cc1ccc(C2c3c(nc4cc(C(F)(F)F)ccn34)CCN2C(=O)COc2ccc3ccccc3c2)nc1` (stereo not shown) [Example 3.50.1, 1-(1-(5-methylpyridin-2-yl)-7-(trifluoromethyl)-3,4-dihydroimidazo[1,2-a:5,4-c′]dipyridin-2(1H)-yl)-2-(naphthalen-2-yloxy)ethan-1-one] it was 58 nM; in that of `COc1ccc(C2c3c(nc4ccccn34)CCN2C(=O)COc2ccc3ccccc3c2)cc1OC` (stereo not shown) [Example 1.1.5, 1-(1-(3,4-dimethoxyphenyl)-3,4-dihydroimidazo[1,2-a:5,4-c′]dipyridin-2(1H)-yl)-2-(naphthalen-2-yloxy)ethan-1-one], 24 nM. To `CCc1ncc(C2c3c(nc4cc(C(F)(F)F)ccn34)CCN2C(=O)COc2ccc3ccccc3c2)cn1` (stereo not shown) [Example 3.54.1, 1-(1-(2-ethylpyrimidin-5-yl)-7-(trifluoromethyl)-3,4-dihydroimidazo[1,2-a:5,4-c′]dipyridin-2(1H)-yl)-2-(naphthalen-2-yloxy)ethan-1-one] belongs 203 nM; to `COc1ccc(C2c3c(nc4cc(C)ccn34)CCN2C(=O)COc2ccc3ccccc3c2)cc1OC` (stereo not shown) [Example 4.1.2, 1-(1-(3,4-dimethoxyphenyl)-7-methyl-3,4-dihydroimidazo[1,2-a:5,4-c′]dipyridin-2(1H)-yl)-2-(naphthalen-2-yloxy)ethan-1-one], 10 nM; to `COc1cc(F)c(C2c3c(nc4cc(C(F)(F)F)ccn34)CCN2C(=O)COc2ccc3c(c2)CN(C(=O)CO)CC3)cc1OC` (stereo not shown) [Example 3.18.7, 1-(1-(2-fluoro-4,5-dimethoxyphenyl)-7-(trifluoromethyl)-3,4-dihydroimidazo[1,2-a:5,4-c′]dipyridin-2(1H)-yl)-2-((2-(2-hydroxyacetyl)-1,2,3,4-tetrahydroisoquinolin-7-yl)oxy)ethan-1-one], 4 nM. Take `Cc1cc(C2c3c(nc4cc(C(F)(F)F)ccn34)CCN2C(=O)COc2ccc3ccccc3c2)ccn1` (stereo not shown) [Example 3.57.1, 1-(1-(2-methylpyridin-4-yl)-7-(trifluoromethyl)-3,4-dihydroimidazo[1,2-a:5,4-c′]dipyridin-2(1H)-yl)-2-(naphthalen-2-yloxy)ethan-1-one]: the IC50 (as a rule, the concentration that gives 50% inhibition) amounted to 155 nM.

For the molecule `COc1cc(F)c(C2c3c(nc4cc(C(F)(F)F)ccn34)CCN2C(=O)COc2ccc3c(c2)CNCC3)cc1OC` (stereo not shown) [Example 3.18.4, 1-(1-(2-fluoro-4,5-dimethoxyphenyl)-7-(trifluoromethyl)-3,4-dihydroimidazo[1,2-a:5,4-c′]dipyridin-2(1H)-yl)-2-((1,2,3,4-tetrahydroisoquinolin-7-yl)oxy)ethan-1-one], it took 72 nM to reach half-maximal inhibition (IC50).

The values above are taken from patent US20180155344A1, “TRICYCLIC PIPERIDINE COMPOUNDS” (ACTELION PHARMACEUTICALS LTD, priority 2015, published 2018).
